Source: the NIST ThermoML archive (doi:10.1021/je100507n)

Columns and labels:
[1] = for mass density: 101.33 kPa, Buoyancy - hydrostatic balance with magnetic suspension - one sinker; for mass density / surface tension liquid-gas: Liquid; for surface tension liquid-gas: Ring tensiometer
[2] = Molar enthalpy of transition or fusion

CCCCC[n+]1ccccc1.O=S(=O)([N-]S(=O)(=O)C(F)(F)F)C(F)(F)F [1-pentylpyridinium bis(trifluoromethylsulfonyl)amide]
Conditions | Glass transition temperature [°C] | Molar enthalpy of transition or fusion [kcal/mol] | mass density [kg/m3] | surface tension liquid-gas [mN/m]
[1], 283.15 K | – | – | 1433.1 | 33.1
[1], 288.15 K | – | – | 1429.6 | 32.8
[1], 293.15 K | – | – | 1425.9 | 32.7
[1], 298.15 K | – | – | 1421.4 | 32.5
[1], 303.15 K | – | – | 1416.9 | 32.2
[1], 308.15 K | – | – | 1412.8 | 32
[1], 313.15 K | – | – | 1408.3 | 31.8
[1], 318.15 K | – | – | 1403.8 | 31.5
[1], 323.15 K | – | – | 1398.9 | 31.3
[1], 328.15 K | – | – | 1394.2 | 31.1
[1], 333.15 K | – | – | 1389.3 | 30.8
[1], 338.15 K | – | – | 1385.1 | 30.5
[1], DTA | -76.93 | – | – | –
[2], Crystal | – | 5.45 | – | –

Conditions | Normal melting temperature [°C]
[1], Crystal, DTA | -0.31

CCCC[n+]1ccccc1.O=S(=O)([N-]S(=O)(=O)C(F)(F)F)C(F)(F)F [1-butylpyridinium bis[(trifluoromethyl)sulfonyl]imide]
Conditions | Molar enthalpy of transition or fusion, [2] [kcal/mol] | mass density, [1] [kg/m3] | surface tension liquid-gas, [1] [mN/m]
298.15 K | – | 1454.7 | 33.4
303.15 K | – | 1450.6 | 33.2
308.15 K | – | 1446.2 | 32.9
313.15 K | – | 1441.7 | 32.8
318.15 K | – | 1437.2 | 32.4
323.15 K | – | 1433.2 | 32.1
328.15 K | – | 1429.1 | 32
333.15 K | – | 1424.5 | 31.8
338.15 K | – | 1420.5 | –
Crystal | 6.67 | – | –

Conditions | Normal melting temperature [°C]
[1], Crystal, DTA | 25.90

CC[n+]1ccccc1.O=S(=O)([N-]S(=O)(=O)C(F)(F)F)C(F)(F)F [1-ethylpyridinium bis[(trifluoromethyl)sulfonyl]imide]
Conditions | Glass transition temperature [°C] | Molar enthalpy of transition or fusion [kcal/mol] | Normal melting temperature [°C] | Triple point temperature [K] | mass density [kg/m3] | surface tension liquid-gas [mN/m]
[1], 288.15 K | – | – | – | – | 1545.7 | 37.7
[1], 293.15 K | – | – | – | – | 1541.4 | 37.6
[1], 298.15 K | – | – | – | – | 1537.5 | 37.4
[1], 303.15 K | – | – | – | – | 1533.2 | 37.1
[1], 308.15 K | – | – | – | – | 1529.1 | 36.9
[1], 313.15 K | – | – | – | – | 1524.9 | 36.7
[1], 318.15 K | – | – | – | – | 1520.5 | 36.6
[1], 323.15 K | – | – | – | – | 1516.4 | 36.4
[1], 328.15 K | – | – | – | – | 1512.2 | 36.1
[1], 333.15 K | – | – | – | – | 1507.8 | 35.9
[1], 338.15 K | – | – | – | – | 1503.7 | 35.6
[1], Crystal 1, DTA | – | – | 30.50 | – | – | –
[1], Crystal 2, DTA | – | – | – | 292.8 | – | –
[1], DTA | -37.91 | – | – | – | – | –
[2], Crystal 1 | – | 4.52 | – | – | – | –
